# Data: patent US5556990A, “Polyarylcarbamoylaza- and -carbamoylalkanedioic acids” (Rhone-Poulenc Rorer Pharmaceuticals Inc., priority 1994, dated 1996)
# Counter-ions that a name gives are not always drawn.
# Molecular target: T1, squalene synthase (Rattus norvegicus, UniProt Q02769)
# T1 construct: Microsomes are prepared by centrifugation (100,000 g) and then resuspended in the assay buffer; from tissue; host or cells: liver microsomes of male Sprague-Dawley rats (animals from Taconic Farms)
# T1 sequence (Q02769 1-416): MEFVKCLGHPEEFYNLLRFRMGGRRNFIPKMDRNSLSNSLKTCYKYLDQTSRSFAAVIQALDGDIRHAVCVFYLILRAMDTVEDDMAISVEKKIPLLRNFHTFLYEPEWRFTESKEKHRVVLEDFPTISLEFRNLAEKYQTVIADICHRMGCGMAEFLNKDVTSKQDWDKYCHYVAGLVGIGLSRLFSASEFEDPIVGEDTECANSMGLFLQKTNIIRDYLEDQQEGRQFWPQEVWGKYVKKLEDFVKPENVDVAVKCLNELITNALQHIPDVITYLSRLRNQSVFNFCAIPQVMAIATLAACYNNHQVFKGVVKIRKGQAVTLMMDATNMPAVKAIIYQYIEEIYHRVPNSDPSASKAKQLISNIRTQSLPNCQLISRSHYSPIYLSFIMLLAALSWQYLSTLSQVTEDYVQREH
# Experiment: Squalene Synthase Inhibition Assay (rat liver microsomes, [3H]FPP substrate, HEPES buffer)
# Format: biochemical, male Sprague-Dawley rats
# Method: Squalene Synthase Inhibition Assay
# The squalene synthase assay used is described by Amin et al. in "Bisphosphonates Used for the Treatment of Bone Disorders Inhibit Squalene Synthase and Cholesterol Biosynthesis," Journal of Lipid Research, 33, 1657-1663 (1992).
# I. Preparation of Assay Substances:
# Test solutions are prepared fresh in 100% DMSO or dH2 O. Subsequent dilutions are made in the same solvent. Compounds are tested initially at 1 μM (final concentrations).
# Potassium Phosphate (50 mM,) pH 7.4, and HEPES (4-(2-hydroxyethyl)-1-piperazineethanesulfonic acid, 50 mM) pH 7.4 stock buffers are prepared and stored at 4° C. until use.
# C) Microsomal Enzyme Preparation:
# Fresh livers from male Sprague-Dawley rats (Taconic Farms, Germantown, N.Y.) weighing 150-200 g are collected after exsanguination. All subsequent procedures are performed at 4° C. The liver is homogenized in the assay buffer (50 mM, pH 7.4). Cellular fractions are separated as described by Popjak, G. in "Enzymes of sterol biosynthesis in liver and intermediates of sterol biosynthesis," Meth. Enzymol. 15 393-454 (1969). Microsomes are prepared by centrifugation (100,000 g) and then resuspended in the assay buffer. Microsomes are rehomogenized with a motor-driven Teflon pestle to yield a uniform suspension (~30 mg protein/ml), aliquoted, and stored at -80° C. until use.
# II. Squalene Synthase Assay
# The procedure is a modification of those described by Popjack (vida supra) and Poulter et al. in "Squalene synthase. Inhibition by ammonium analogues of carbocationic intermediates in the conversion of presqualene diphosphate to squalene" J. Am. Chem. Soc. 111, 3734-3739 (1989). The assay is performed in 1 ml of 50 mM assay buffer, pH 7.4, containing 10 mM MgCl2, 0.5 mM NADPH, microsomes (30 μg protein), a test compound dissolved in distilled water or dimethylsulfoxide, and substrate [^3 H]FPP (0.5 μM, 0.27 Ci/mmol) in a 16×125 mm glass screw-cap tube. All components except [3H]FPP are preincubated for 10 min. at 37° C. The reaction is initiated by the addition of [^3 H]FPP. After 10 min at 37° C., the reaction is terminated by the addition of 1 ml 15% KOH in ethanol. The tubes are incubated at 65° C. for 30 min. to solubilize proteins. The mixture is extracted with 5 ml petroleum ether for 10 min. After freezing the lower aqueous phase, the organic phase is transferred to glass tubes containing 2 ml distilled water. After washing the lower aqueous phase is frozen and the petroleum ether phase is removed and counted with 10 ml Ready Safe liquid scintillation cocktail using a Beckman LS-9000 scintillation counter. DPM values are adjusted against a blank (no enzyme).
# The difference in radioactivity in the presence and absence of the test compound is used to determine the level of inhibition. The IC50 values are calculated using a linear regression program of Tallarida and Murray (1987). Tallarida, R. J. and Murray, R. B. Manual of pharmacologic calculations with computer programs. Springer-Verlag, 1987.
row,Compound,IC50
1,"O=C(O)CC(NC(=O)NC1CCCCC1OCc1ccc(-c2nc3ccccc3o2)cc1)C(=O)O [Example 30, 3-(R)-(N-{2-α-[4-(Benzoxazol-2-yl)benzyloxy]cyclohexyl}-β-carbamoylaza)-3-carboxypropanoic acid]",2600 nM
2,CCOC(=O)CC(O)(CC(=O)N[C@@H]1CCCC[C@H]1OCc1ccc(-c2nc3ccccc3o2)cc1)C(=O)OCC (relative stereo),10000 nM
3,"O=C(O)CC(O)(CC(=O)N[C@@H]1CCCC[C@H]1OCc1ccc(-c2nc3ccccc3o2)cc1)C(=O)O (relative stereo) [Example 5, 4-[2-α-(4-Benzoxazol-2-ylbenzyloxy)cyclohexyl-β-carbamoyl]-3-hydroxy-3-carboxybutyric acid]",190 nM
4,"CC(O)(CNC(=O)C(O)(CC(=O)O)CC(=O)O)c1ccc(-c2ccc3ccccc3c2)cc1 (stereo not drawn) [Example 28, 3-Hydroxy-3-{-N-[2-hydroxy-2-(4-naphthalen-2-yl-phenyl)prop-2-yl]carbamoyl}pentandioic acid, disodium salt]",100 nM
5,"COc1cccc(-c2ccc(C3(O)CCCN(C(=O)CC(O)(CC(=O)O)C(=O)O)C3)cc2)c1 (stereo not drawn) [Example 24, disodium salt]",100 nM

# Now those with a lower IC50, led by results:
row,IC50,Compound
1,77 nM,"CC[C@@H](COCc1ccc(-c2nc3ccccc3o2)cc1)NC(=O)CC(O)(CC(=O)O)C(=O)O (stereo partly drawn) [Example 22, 3-{N-[1-(4-Benzoxazol-2-ylbenzyloxy)but-2-yl]carbamoyl}-3-hydroxy-3-carboxybutanoic acid, disodium salt]"
2,51 nM,"O=C(O)CC(O)(CC(=O)N1CCCC(COCc2ccc(-c3nc4ccccc4o3)cc2)C1)C(=O)O (stereo not drawn) [Example 19, 4-[3-(4-(Benzoxazol-2-yl)benzyloxymethyl)piperidin-1-ylcarbonyl]-3-hydroxy-3-carboxybutanoic acid, disodium salt]"
3,36 nM,"4-{3-[4-(2-methoxyquinolin-6-yl)phenyl]-1,2,5,6-tetrahydro-pyridylcarbonyl}-3-hydroxy-3-carboxybutanoic acid, disodium salt [Example 12]"
4,27 nM,"O=C(O)CC(O)(CC(=O)N1CCCC(O)(c2ccc(-c3ccc4ccccc4c3)cc2)C1)C(=O)O (stereo not drawn) [Example 1, 4-[3-Hydroxy-3-(4-naphth2-ylphenyl)piperidin-1-ylcarbonyl]-3-hydroxy-3-carboxybutanoic acid]"
